# Results as given in US7820673B2, “Urea derivative, process for producing the same, and use” (Takeda Pharmaceutical Company Limited, priority 2003, dated 2010).
# pIC50: −log10 of the molar value.
# Molecular target: human FXa (Homo sapiens, UniProt P00742)
# Assay: Human activated blood coagulation factor X (FXa) inhibitory action
# Assay type: biochemical
# Conditions: concentration inhibiting 50% of the FXa action; substrate S-2765, 37° C., absorbance at 405 nm
# Protocol: (1) Human Activated Blood Coagulation Factor X (FXa) Inhibitory Action
# Method of experiment: 225 μl of a 0.05 M Tris hydrochloride buffer (pH 8.3) containing 0.145 M sodium chloride and 2 mM calcium chloride, 5 μl of a sample (the test compound is dissolved in dimethylsulfoxide), and 10 μl of human FXa (0.3 unit/ml) were added to a 96-well microplate to react at 37° C. for about 10 minutes, and then 10 μl of a substrate (3 mM, S-2765) was added thereto to react at 37° C. for about 10 minutes. Subsequently, 25 μl of a 50% aqueous acetic acid solution was added to terminate the reaction, and then the change in the absorbance at 405 nm was measured with a spectrophotometer to calculate the concentration inhibiting 50% of the FXa action (IC50).
# Chain of human FXa (P00742 235-488 limits assumed): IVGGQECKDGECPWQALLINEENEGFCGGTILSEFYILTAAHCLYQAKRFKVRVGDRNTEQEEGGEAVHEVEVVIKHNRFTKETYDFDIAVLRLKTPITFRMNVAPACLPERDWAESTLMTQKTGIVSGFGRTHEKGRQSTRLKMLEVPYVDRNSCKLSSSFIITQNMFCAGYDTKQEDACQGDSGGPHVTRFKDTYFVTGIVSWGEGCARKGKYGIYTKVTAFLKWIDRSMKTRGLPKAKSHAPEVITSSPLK
# Chain of human FXa (P00742 41-179 partner limits assumed): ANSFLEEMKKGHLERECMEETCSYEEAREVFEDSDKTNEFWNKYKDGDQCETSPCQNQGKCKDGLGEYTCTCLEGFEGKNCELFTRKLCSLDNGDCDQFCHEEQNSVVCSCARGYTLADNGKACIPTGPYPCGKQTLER
row,pIC50,Structure (SMILES)
1,7.74,"Cc1ncc2n1C(=O)N(N1CCN(C(=O)[C@H](NC(=O)Nc3ccc(Cl)cc3)C(C)(C)C)CC1)C2 [Example 20, N—(4-chlorophenyl)—N′—((1R)-2,2-dimethyl-1-((4-(5-methyl-3-oxo-1H-imidazo[1,5-c]imidazol-2(3H)-yl)-1-piperazinyl)carbonyl)propyl)urea]"
2,7.59,"CCC(O)(CC)C(NC(=O)Nc1ccc(Cl)cc1)C(=O)N1CCN(N2Cc3cnc(C)n3C2=O)CC1 (stereo not shown) [Example 37, N—(4-chlorophenyl)—N ′—(2-ethyl-2-hydroxy-1-((4-(5-methyl-3-oxo-1H-imidazo[1,5-c]imidazol-2(3H)-yl)-1-piperazinyl)carbonyl)butyl)urea]"
3,8.00,"CSC(C)(C)[C@@H](NC(=O)Nc1ccc(Cl)cc1)C(=O)N1CCN(N2Cc3cnc(C)n3C2=O)CC1 [Example 40, N—(4-chlorophenyl)—N′—((1S)-2-methyl-1-((4-(5-methyl-3-oxo-1H-imidazo[1,5-c]imidazol-2(3H)-yl)-1-piperazinyl)carbonyl)-2-(methylthio)propyl)urea]"
4,7.30,"COC(C)(C)C(NC(=O)Nc1ccc(Cl)cc1)C(=O)N1CCN(N2Cc3cnc(C)n3C2=O)CC1 (stereo not shown) [Example 74, N-(4-chlorophenyl)-N′-(2-methoxy-2-methyl-1-((4-(5-methyl-3-oxo-1H-imidazo[1,5-c]imidazol-2(3H)-yl)-1-piperazinyl)carbonyl)propyl)urea]"
